The values below are quoted from earlier work in patent publication US20050107279A1, “Emulsion composition” (Unilever Home & Personal Care USA, Division of Conopco, Inc., priority 2003, published 2005).

For data set [1] the following is noted: AOT; range as per Sabatini et al. 1996.
For data set [2] the following is noted: hydrophobic liquid.
The conditions of data set [3]: hydrophobic liquid. This is another data set of the same source.

Consider `CCCCC(CC)COC(=O)CC(C(=O)OCC(CC)CCCC)S(=O)(=O)[O-].[Na+]` (stereo not drawn) [AOT, Aerosol OT], for which, in data set [1], the HLB was 10-14.9).
`CCCCCCCC` [Octane]: in data set [2], the “Log P” value is reported as “(Log P = 4.7)”. The solubility in water result in data set [3] is reported as “Solubility = 7 × 10^−5%”.
